Measurements reported in patent US20120202690A1, “HERBICIDAL COMPOUNDS” (SYNGENTA LIMITED, priority 2009, published 2012).

How the values were obtained:
Format in all cases: in vivo
[1] = system: Alopecurus myosuroides (ALOMY); test: Pre-emergence biological efficacy, glasshouse, 1000 g/ha, evaluated after 13 days (100=total damage to plant; 0=no damage to plant); conditions: rate 1,000 g/ha; for pest or weed control at 1000 g/ha: Alopecurus myosuroides, 312 h, read-out: Percentage damage caused to weed species, pre-emergence, ALOMY
Procedure, shortened: (§1)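 Standard soil in pots received the seeds. Growth took place in a glasshouse held at 24/16° C. day/night, 65% humidity and 14 h of light.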

[2] = system: Amaranthus retroflexus (AMARE); test: as above; conditions: rate 1,000 g/ha; for pest or weed control at 1000 g/ha: Amaranthus retroflexus, 312 h, read-out: Percentage damage caused to weed species, pre-emergence, AMARE
Procedure, shortened: as §1

[3] = system: Echinochloa crus-galli (ECHCG); test: as above; conditions: rate 1,000 g/ha; for pest or weed control at 1000 g/ha: Echinochloa crus-galli, 312 h, read-out: Percentage damage caused to weed species, pre-emergence, ECHCG
Procedure, shortened: as §1

[4] = system: Ipomoea hederaceae (IPOHE); test: as above; conditions: rate 1,000 g/ha; for pest or weed control at 1000 g/ha: Ipomoea, 312 h, read-out: Percentage damage caused to weed species, pre-emergence, IPOHE
Procedure, shortened: as §1

Setaria faberi (SETFA) [5] = test: as above; conditions: rate 1,000 g/ha; for pest or weed control at 1000 g/ha: Setaria faberi, 312 h, read-out: Percentage damage caused to weed species, pre-emergence, SETFA
Procedure, shortened: as §1

Solanum nigrum (SOLNI) [6] = test: as above; conditions: rate 1,000 g/ha; for pest or weed control at 1000 g/ha: Solanum nigrum, 312 h, read-out: Percentage damage caused to weed species, pre-emergence, SOLNI
Procedure, shortened: as §1

[7] = system: Alopecurus myosuroides (ALOMY); test: Post-emergence biological efficacy, glasshouse, 500 or 1000 g/ha, evaluated after 13 days (100=total damage to plant; 0=no damage to plant); conditions: rate 1,000 g/ha; for pest or weed control at 1000 g/ha: Alopecurus myosuroides, 312 h, read-out: Percentage damage caused to weed species, post-emergence, ALOMY
Procedure, shortened: (§2)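 Sow seeds in standard potting soil. Treat after emergence. Keep treated plants in the glasshouse at 24° C. by day and 16° C. by night, with a 14-hour photoperiod, 65% humidity and two waterings daily.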

[8] = system: Amaranthus retroflexus (AMARE); test: as above; conditions: rate 1,000 g/ha; for pest or weed control at 1000 g/ha: Amaranthus retroflexus, 312 h, read-out: Percentage damage caused to weed species, post-emergence, AMARE
Procedure, shortened: as §2

[9] = system: Echinochloa crusgaffi (ECHCG); test: as above; conditions: rate 1,000 g/ha; for pest or weed control at 1000 g/ha: Echinochloa, 312 h, read-out: Percentage damage caused to weed species, post-emergence, ECHCG
Procedure, shortened: as §2

[10] = system: Ipomoea hederaceae (IPOHE); test: as above; conditions: rate 1,000 g/ha; for pest or weed control at 1000 g/ha: Ipomoea, 312 h, read-out: Percentage damage caused to weed species, post-emergence, IPOHE
Procedure, shortened: as §2

Setaria faberi (SETFA) [11] = test: as above; conditions: rate 1,000 g/ha; for pest or weed control at 1000 g/ha: Setaria faberi, 312 h, read-out: Percentage damage caused to weed species, post-emergence, SETFA
Procedure, shortened: as §2

Solanum nigrum (SOLNI) [12] = test: as above; conditions: rate 1,000 g/ha; for pest or weed control at 1000 g/ha: Solanum nigrum, 312 h, read-out: Percentage damage caused to weed species, post-emergence, SOLNI
Procedure, shortened: as §2

Structure (SMILES)	pest or weed control at 1000 g/ha [1] [%]	pest or weed control at 1000 g/ha [2] [%]	pest or weed control at 1000 g/ha [3] [%]	pest or weed control at 1000 g/ha [4] [%]	pest or weed control at 1000 g/ha (Setaria faberi (SETFA) [5]) [%]	pest or weed control at 1000 g/ha (Solanum nigrum (SOLNI) [6]) [%]	pest or weed control at 1000 g/ha [7] [%]	pest or weed control at 1000 g/ha [8] [%]	pest or weed control at 1000 g/ha [9] [%]	pest or weed control at 1000 g/ha [10] [%]	pest or weed control at 1000 g/ha (Setaria faberi (SETFA) [11]) [%]	pest or weed control at 1000 g/ha (Solanum nigrum (SOLNI) [12]) [%]	also measured
COc1c(Cl)ccc(-c2nc(C(=O)O)c3c(C)cn(S(=O)(=O)c4ccc(C)cc4)c3n2)c1F [Compound 19-63, 4-Carboxy-2-(4-chloro-2-fluoro-3-methoxyphenyl)-5-methyl-7-(4-methylphenyl-sulphonyl)-7H-pyrrolo[2,3-d]pyrimidine]	0	0	0	0	0	0	0	50	0	60	0	70	–
COC(=O)c1nc(-c2ccc(Cl)c(OC)c2F)nc2scc(C)c12 [Compound 21-64, 2-(4-Chloro-2-fluoro-3-methoxyphenyl)-4-methoxycarbonyl-5-methyl-thieno[2,3-d]pyrimidine]	0	0	0	0	0	0	0	80	10	40	0	70	–
COC(=O)c1nc(-c2ccc(Cl)c(F)c2)cc2[nH]cc(C)c12 [Compound 22-20, 6-(4-Chloro-3-fluorophenyl)-4-methoxycarbonyl-3-methyl-1H-pyrrolo[3,2-c]pyridine]	20	100	20	80	0	60	50	100	70	70	60	80	–
COC(=O)c1nc(-c2ccc(Cl)c(OC)c2F)cc2[nH]ccc12 [Compound 22-62, 6-(4-Chloro-2-fluoro-3-methoxyphenyl)-4-methoxycarbonyl-1H-pyrrolo[3,2-c]pyridine]	0	20	0	50	0	20	0	80	50	60	20	70	–
COc1c(Cl)ccc(-c2cc3[nH]cc(C)c3c(C(=O)O)n2)c1F [Compound 22-63, 4-Carboxy-6-(4-chloro-2-fluoro-3-methoxyphenyl)-3-methyl-1H-pyrrolo[3,2-c]pyridine]	0	20	0	70	0	60	40	70	70	70	90	80	–
COC(=O)c1nc(-c2ccc(Cl)c(OC)c2F)cc2[nH]cc(C)c12 [Compound 22-64, 6-(4-chloro-2-fluoro-3-methoxyphenyl)-4-methoxycarbonyl-3-methyl-1H-pyrrolo[3,2-c]pyridine]	10	90	70	60	20	80	50	100	80	70	70	90	–
CCOC(=O)c1nc(-c2ccc(Cl)c(OC)c2F)cc2[nH]cc(C)c12 [Compound 22-75, 6-(4-chloro-2-fluoro-3-methoxyphenyl)-4-ethoxycarbonyl-3-methyl-1H-pyrrolo[3,2-c]pyridine]	10	70	10	90	0	80	10	80	20	60	50	90	–
CCCCCCCCOC(=O)c1nc(-c2ccc(Cl)c(OC)c2F)cc2[nH]cc(C)c12 [Compound 22-77]	–	–	–	–	–	–	–	–	–	–	–	–	Percentage damage caused to weed species, pre-emergence, ALOMY [1]: 10%; Percentage damage caused to weed species, pre-emergence, AMARE [2]: 20%; Percentage damage caused to weed species, pre-emergence, ECHCG [3]: 0%; Percentage damage caused to weed species, pre-emergence, IPOHE [4]: 90%; Percentage damage caused to weed species, pre-emergence, SETFA (Setaria faberi (SETFA) [5]): 20%; Percentage damage caused to weed species, pre-emergence, SOLNI (Solanum nigrum (SOLNI) [6]): 80%; Percentage damage caused to weed species, post-emergence, ALOMY [7]: 10%; Percentage damage caused to weed species, post-emergence, AMARE [8]: 70%; Percentage damage caused to weed species, post-emergence, ECHCG [9]: 0%; Percentage damage caused to weed species, post-emergence, IPOHE [10]: 30%; Percentage damage caused to weed species, post-emergence, SETFA (Setaria faberi (SETFA) [11]): 0%; Percentage damage caused to weed species, post-emergence, SOLNI (Solanum nigrum (SOLNI) [12]): 90%
COc1c(Cl)ccc(-c2cc3[nH]cc(C)c3c(C(=O)OC(C)C)n2)c1F [Compound 22-78, 6-(4-Chloro-2-fluoro-3-methoxyphenyl)-4-isopropoxycarbonyl-3-methyl-1H-pyrrolo[3,2-c]pyridne]	0	20	0	0	0	10	0	0	0	70	0	60	–
CCCCCC(C)OC(=O)c1nc(-c2ccc(Cl)c(OC)c2F)cc2[nH]cc(C)c12 (stereo not drawn) [Compound 22-79, 6-(4-Chloro-2-fluoro-3-methoxyphenyl)-4-(hept-2-yloxycarbonyl)-3-methyl-1H-pyrrolo[3,2-c]pyridine]	10	10	10	30	20	50	10	40	0	40	10	70	–
C=CCOC(=O)c1nc(-c2ccc(Cl)c(OC)c2F)cc2[nH]cc(C)c12 [Compound 22-80, 6-(4-Chloro-2-fluoro-3-methoxyphenyl)-3-methyl-4-(prop-2-enyloxycarbonyl)-1H-pyrrolo[3,2-c]pyridine]	20	40	20	50	20	60	10	70	10	50	20	90	–
